#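 48-hour exposure; five concentrations; linearly interpolated endpoints. The concentration for 50% growth inhibition is given as GI50. TGI: total growth inhibition.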
# Legend:
# Assay in all cases: NCI-60 cell line screen, 48 h
# MDA-MB-435 = tested on: MDA-MB-435
# TK-10 renal = tested on: TK-10 renal
# MDA-MB-231 breast = tested on: MDA-MB-231 breast
# MCF7 breast = tested on: MCF7 breast
# A498 renal = tested on: A498 renal
# IGROV1 ovarian = tested on: IGROV1 ovarian
# SK-MEL-5 melanoma = tested on: SK-MEL-5 melanoma
# 786-0 renal = tested on: 786-0 renal
# EKVX NSCLC = tested on: EKVX NSCLC
# U251 CNS = tested on: U251 CNS
SMILES,TGI (MDA-MB-435) [µM],TGI (TK-10 renal) [µM],TGI (MDA-MB-231 breast) [µM],TGI (MCF7 breast) [µM],TGI (A498 renal) [µM],TGI (IGROV1 ovarian) [µM],TGI (SK-MEL-5 melanoma) [µM],TGI (786-0 renal) [µM],TGI (EKVX NSCLC) [µM],TGI (U251 CNS) [µM],GI50 (MDA-MB-435) [nM],GI50 (TK-10 renal) [nM],GI50 (MDA-MB-231 breast) [nM],GI50 (A498 renal) [nM],GI50 (SK-MEL-5 melanoma) [nM],GI50 (786-0 renal) [nM],GI50 (EKVX NSCLC) [nM],GI50 (MCF7 breast) [nM],GI50 (IGROV1 ovarian) [nM],GI50 (U251 CNS) [nM]
OC(C1=C/C(=C\c2ccncc2)c2ccccc21)c1ccncc1 (stereo not given),27.9,32.3,23.4,30.7,27.3,52.4,13,30.3,41.5,31.4,,,,,,,,,,
c1cc2c(cc1C(N1CCNCC1)N1CCNCC1)OCO2,> 100,> 100,> 100,> 100,> 100,> 100,> 100,> 100,> 100,> 100,,,,,,,,,,
Nc1nc(Nc2ccc3c(c2)CC[C@@H](N2CCCC2)CC3)nn1-c1cc2c(nn1)-c1ccccc1CCC2,3.1,2.97,3.55,,1.44,,3.11,3.28,3.29,,1690,1350,1820,24.9,1720,1550,1680,,,
O=C(NC1CC1)c1ccc(-c2nc3ccc4[nH]ncc4c3c3c2CCCC3)cc1,5.02,25.6,31.8,9.57,5.01,> 50,9.83,12.3,12.2,13.7,1380,991,2060,1030,2670,2110,1330,1440,989,2190
CCN1C(=O)N(CC)C2C1NN=c1s/c(=C3\C(=O)N(CC(C)C)c4ccccc43)c(=O)n12 (stereo not given),0.521,> 56.6,> 30.6,> 100,0.875,> 55.7,> 100,26.7,> 100,27.4,224,8080,2050,197,436,1020,1560,454,808,548
COC1/C=C\C=C(/C)C(=O)Nc2cc3nc4ccc(Br)cc4oc-3c(c2=O)CC(C)CC(OC)C(O)C(C)/C=C(\C)C1OC(N)=O (stereo not given),2.99,17.6,11.5,,30.9,19.2,9.44,12,25.9,28.7,34.2,6.81,32.1,,,5.76,,,3.12,
CCC1=C[C@@H]2CN(C1)Cc1c([nH]c3ccccc13)[C@@](C(=O)OC)(c1cc3c(cc1OC)N(C=O)[C@H]1[C@@](O)(C(=O)OC)[C@H](OC(C)=O)[C@]4(CC)[C@@H]5C[C@@H]5CN5CC[C@]31[C@@H]54)C2,< 0.000625,> 6.25,,> 6.25,0.0794,> 6.25,0.0315,> 3.19,,> 6.25,< 0.625,315,1.12,2.21,0.921,5.87,,< 0.625,2.61,0.676
COc1ccc(/C=C2\CN(C(=O)C(Cl)Cl)C/C(=C\c3ccc(OC)c(OC)c3)C2=O)cc1OC,0.265,,1.39,,,1.75,0.54,1.19,1.87,1.12,52.8,,344,,199,326,366,,321,40.5
COC(=O)COc1ccc(/C=C2\N=C(c3ccccc3)N(c3cc(C(F)(F)F)ccc3Cl)C2=O)cc1,> 100,> 100,> 100,> 100,,> 100,> 100,> 100,> 100,> 100,50300,> 100000,> 100000,,46100,> 100000,> 100000,59800,29100,46400
CCCCCNC(=O)[C@@H]1CCCN2C(=O)CC[C@H](NC(=O)[C@H](Cc3ccc(OP(=O)(O)O)cc3)NC(C)=O)C(=O)N12,> 25,> 25,> 25,> 25,> 25,> 25,> 25,> 25,,> 25,> 25000,> 25000,> 25000,> 25000,> 25000,> 25000,,> 25000,> 25000,> 25000
